Experimental data taken from BindingDB's records for doi:10.1021/acsmedchemlett.0c00444 (Virginia Commonwealth University, 2020).

Test: Inhibition of HIV1 3B reverse transcriptase infected in human GHOST CXCR4 cells assessed as reduction in viral replication incubated for 60 to 90 mins in presence of DTT and TTP by liquid scintillation counter

Structure (SMILES) | EC50
CNC(=O)COCC(=O)NCCCCNC(=O)COCC(=O)NC[C@H]1CC[C@H](/N=C(\NC2CCCCC2)SCC2=CSC3=NC(C)(C)CN23)CC1 | 144000 nM
CC1(C)CN2C(CS/C(N)=N\[C@H]3CC[C@H](CNC(=O)COCC(=O)NCCCCNC(=O)COCC(=O)N[C@@H]4CC[C@@]5(O)[C@H]6Cc7ccc(O)c8c7[C@@]5(CCN6CC5CC5)[C@H]4O8)CC3)=CSC2=N1 | 960 nM
CC1(C)CN2C(CS/C(=N\C3CCCCC3)NC3CCCCC3)=CSC2=N1 [(6,6-dimethyl-5,6-dihydroimidazo[2,1-b][1,3]thiazol-3-yl)methyl N,N'-dicyclohexylimidothiocarbamate] | 22 nM
